# According to PMC8728736, “A Reactivity-Based ^18F-Labeled Probe for PET Imaging of Oxidative Stress in Chemotherapy-Induced Cardiotoxicity” (Molecular Pharmaceutics, 2021):
# Values joined by “and” are separate entries in the source; they are usually repeats but may differ in a detail not shown here. Identical values can stand only once.
# Experiments:
# [1] = Post-mortem biodistribution in healthy rats; format: in vivo, Wistar rats; settings: iv; for Ex vivo biodistribution, Blood / Ex vivo biodistribution, Bone / Ex vivo biodistribution, Brain / Ex vivo biodistribution, Heart / Ex vivo biodistribution, Kidney / Ex vivo biodistribution, Large Intestine / Ex vivo biodistribution, Liver / Ex vivo biodistribution, Lung / Ex vivo biodistribution, Muscle / Ex vivo biodistribution, Small Intestine / Ex vivo biodistribution, Spleen / Ex vivo biodistribution, Urine: healthy rats, mean ± SD, n = 3
# Description: Wistar rats (male, 319 ± 20 g) were injected intravenously via the tail vein with either ^18F-FPBT (1.0 ± 0.4 MBq) or ^18F-FPBT-Ox (1.1 ± 0.5 MBq). The animals were sacrificed by cervical dislocation at 1, 5, or 30 min postinjection (n = 3/group). Organs and tissues of interest were harvested and weighed, and the radioactivity was measured in a gamma counter. Organ uptake was calculated as the percentage injected dose per gram of tissue mass (% ID/g). Data are reported as mean ± SD.
# [2] = Serum stability at 37 °C by radio-HPLC; format: in vitro ADME, rat; settings: serum, 37 °C, up to 30 min
# Description: ^18F-FPBT (∼3.0 MBq) in 5% ethanol in PBS (200 μL) containing sodium ascorbate (0.01 mg/mL) was incubated with rat serum (200 μL) at 37 °C for 1 min or 1 h. Subsequently, plasma proteins were precipitated from the supernatant with ice-cold acetonitrile (1.5 mL), and samples were centrifuged (3 min, 13 000 rpm). The residual activity in the pellet was <3%. The supernatant (∼2.0 MBq, 1.0 mL) was analyzed by radio-HPLC. HPLC method: ZORBAX column (300SB-C18, semipreparative 9.4 mm × 250 mm, 5 μm) using acetonitrile and water as the mobile phase, at a flow rate of 3.0 mL/min. The following gradient was used: from 50% to 90% acetonitrile in 15 min; kept at 90% acetonitrile for 10 min; from 90 to 50% acetonitrile in 5 min.
# ^18F-FBPT-Ox (2–4 MBq, 50 μL in 10% EtOH/PBS) was added to serum (500 μL) and incubated at 37 °C for 5, 15, and 30 min, respectively. Plasma proteins were precipitated with a 5-sulfosalicylic acid water solution (10% w/v, 1 mL) and centrifuged (3 min, 13 000 rpm). The supernatant was removed and diluted with 500 μL of DI H2O and analyzed via radio-HPLC. A control experiment was performed where ^18F-FBPT-Ox (2 MBq, 50 μL in 10% EtOH/PBS) was added to 500 μL of PBS, incubated at 37 °C for 30 min. A 5-sulfosalicylic acid water solution (10% w/v, 1 mL) was added, thoroughly mixed, then diluted with 500 μL of DI H2O, and analyzed via radio-HPLC. […]
# [3] = In vivo blood stability of 18F-FPBT-Ox; design: species or system Wistar rats; settings: rats, plasma radio-HPLC with gamma counting, n = 2
# Description: Wistar rats (male, 320 ± 20 g) were intravenously injected with ^18F-FPBT-Ox (∼15 MBq). The animals were sacrificed by cervical dislocation at 30 min postinjection (n = 2). Blood samples were collected in heparin-coated tubes. After centrifugation (5 min, 13 000 rpm), the plasma (∼1 mL) was separated. Plasma proteins were subsequently precipitated with 5-sulfosalicylic acid water solution (10% w/v, 1.5 mL) and centrifuged (5 min, 13,000 rpm). The supernatant was removed and diluted with 500 μL of DI H2O and analyzed via radio-HPLC. HPLC method: ZORBAX column (300SB-C18, semipreparative 9.4 mm × 250 mm, 5 μm). Solvent A: H2O. Solvent B: MeCN. Flow rate: 3.0 mL/min; 0–5 min, 0% of B; 5–20 min, 0–50% of B; 20–30 min, 50–0% of B. HPLC eluent was collected every minute in 30 vials separately and submitted to gamma counting. The counts per minute in each vial were plotted against the corresponding time point.
# [4] = Lipophilicity, partition between 1-octanol and PBS; format: physicochemical; settings: 1-octanol/PBS pH 7.4, shake-flask, n = 6
# Description: The lipophilicity of ^18F-FPBT and ^18F-FPBT-Ox was determined by a conventional partition method between 1-octanol and phosphate buffered saline (PBS), pH 7.4. 1-Octanol was presaturated with PBS before use. The radiotracer (∼2 KBq) was added to a mixture of PBS (200 μL) and 1-octanol (200 μL) in a 1.5 mL Eppendorf vial (n = 6). The mixture was vigorously agitated at rt for 5 min and then centrifuged at 3000 g for 10 min. A 100 μL aliquot from each layer was drawn for measurement in a gamma counter. The LogDoct/PBS was calculated as follows: log [(cpm in the 1-octanol layer – cpm 1-octanol blank)/(cpm in the PBS layer – cpm PBS blank)].
# [5] = Ex vivo heart biomarkers of oxidative stress; format: in vivo, Wistar rats; settings: hearts harvested after PET imaging, n = 4
# Description: (§1) Male Wistar rats (280–300 g) were used in all experiments. Subcutaneous 7 day osmotic pumps (Alzet), containing either doxorubicin (Cambridge Bioscience, 30 mg/kg cumulative dose) or vehicle (sterile 0.9% NaCl), were inserted into rats under 2% isoflurane in 100% oxygen.
# Total glutathione concentration was determined by an enzyme recycling method.[21] Lipid peroxidation was evaluated using the lipid peroxidation (MDA) assay kit from Sigma-Aldrich, which measures the colorimetric product that results from the reaction of malondialdehyde (MDA) present in the tissue with thiobarbituric (TBA) acid. Iron content was measured in isolated mitochondria and cytosolic fractions using the iron colorimetric assay kit from BioVision following the manufacture’s protocol.
# [6] = Rat model of doxorubicin-induced cardiotoxicity: body weight and echocardiography; format: in vivo, Wistar rats; settings: rats
# Description: as §1
# In order to assess cardiac function, all rats were subjected to a cardiac ultrasound (Vevo 770TM, VisualSonics) 1 day prior to and on day 6 of osmotic pump implantation. Rats were anesthetized with 2% isoflurane in 100% oxygen and maintained at 37 °C via a homeothermic platform and rectal thermometer. High-resolution parasternal left ventricle (LV) long axis M-mode and B-mode images were obtained using an RMV710B transducer. Images were analyzed offline using Vevo Software to determine LV function. Data are reported as mean ± SD. Statistical analysis was performed using one-way ANOVA with Tukey’s multiple comparisons test.
compound,measurement,setting,value
[18F]CCC[n+]1c(-c2ccccc2)sc2ccccc21 [^18F-FPBT-Ox],"Route of clearance / excretion, in words",[1]; healthy Wistar rats,quickly cleared by the kidneys and excreted through the urine
same,"Uptake by major organs (brain, heart, lung, spleen), in words",[1]; healthy Wistar rats,significantly reduced uptake
same,"Ex vivo biodistribution, Blood",[1]; 1 min,0.36 ± 0.12 % ID/g
same,"Ex vivo biodistribution, Bone",[1]; 1 min,0.16 ± 0.14 % ID/g
same,"Ex vivo biodistribution, Brain",[1]; 1 min,0.23 ±0.19 % ID/g
same,"Ex vivo biodistribution, Heart",[1]; 1 min,0.39 ± 0.25 % ID/g
same,"Ex vivo biodistribution, Kidney",[1]; 1 min,4.22 ± 0.20 % ID/g
same,"Ex vivo biodistribution, Large Intestine",[1]; 1 min,0.12 ± 0.07 % ID/g
same,"Ex vivo biodistribution, Liver",[1]; 1 min,1.49 ± 0.65 % ID/g
same,"Ex vivo biodistribution, Lung",[1]; 1 min,0.31 ±0.05 % ID/g
same,"Ex vivo biodistribution, Muscle",[1]; 1 min,0.06 ± 0.02 % ID/g
same,"Ex vivo biodistribution, Small Intestine",[1]; 1 min,0.28 ± 0.20 % ID/g
same,"Ex vivo biodistribution, Spleen",[1]; 1 min,0.26 ± 0.13 % ID/g
same,"Ex vivo biodistribution, Urine",[1]; 1 min,1.39 ± 1.21 % ID/g
same,"Ex vivo biodistribution, Blood",[1]; 5 min,0.15 ± 0.08 % ID/g
same,"Ex vivo biodistribution, Bone",[1]; 5 min,0.09 ± 0.03 % ID/g
same,"Ex vivo biodistribution, Brain",[1]; 5 min,0.14 ± 0.11 % ID/g
same,"Ex vivo biodistribution, Heart",[1]; 5 min,0.18 ± 0.06 % ID/g
same,"Ex vivo biodistribution, Kidney",[1]; 5 min,1.15 ± 0.75 % ID/g
same,"Ex vivo biodistribution, Large Intestine",[1]; 5 min,0.10 ± 0.04 % ID/g
same,"Ex vivo biodistribution, Liver",[1]; 5 min,1.17 ± 0.37 % ID/g
same,"Ex vivo biodistribution, Lung",[1]; 5 min,0.21 ± 0.05 % ID/g
same,"Ex vivo biodistribution, Muscle",[1]; 5 min,0.05 ± 0.02 % ID/g
same,"Ex vivo biodistribution, Small Intestine",[1]; 5 min,1.59 ± 1.93 % ID/g
same,"Ex vivo biodistribution, Spleen",[1]; 5 min,0.11 ± 0.04 % ID/g
same,"Ex vivo biodistribution, Urine",[1]; 5 min,9.29 ± 3.02 % ID/g
same,"Ex vivo biodistribution, Blood",[1]; 30 min,0.09 ± 0.04 % ID/g
same,"Ex vivo biodistribution, Bone",[1]; 30 min,0.12 ± 0.06 % ID/g
same,"Ex vivo biodistribution, Brain",[1]; 30 min,0.07 ± 0.07 % ID/g
same,"Ex vivo biodistribution, Heart",[1]; 30 min,0.11 ± 0.06 % ID/g
same,"Ex vivo biodistribution, Kidney",[1]; 30 min,0.59 ± 0.31 % ID/g
same,"Ex vivo biodistribution, Large Intestine",[1]; 30 min,0.05 ± 0.04 % ID/g
same,"Ex vivo biodistribution, Liver",[1]; 30 min,0.90 ± 0.59 % ID/g
same,"Ex vivo biodistribution, Lung",[1]; 30 min,0.12 ± 0.07 % ID/g
same,"Ex vivo biodistribution, Muscle",[1]; 30 min,0.03 ± 0.00 % ID/g
same,"Ex vivo biodistribution, Small Intestine",[1]; 30 min,0.63 ± 0.64 % ID/g
same,"Ex vivo biodistribution, Spleen",[1]; 30 min,0.07 ± 0.05 % ID/g
same,"Ex vivo biodistribution, Urine",[1]; 30 min,15.80 ± 12.98 % ID/g
same,Serum stability (in words),[2],excellent serum stability
same,Time stable in blood post IV injection,[3],at least 30 min
same,LogD,[4],−1.00 ± 0.04 and ~−1
COc1cccc2c1C(=O)c1c(O)c3c(c(O)c1C2=O)C[C@@](O)(C(=O)CO)C[C@@H]3O[C@H]1C[C@H](N)[C@H](O)[C@H](C)O1 [doxorubicin],"Cardiac oxidative stress biomarkers (glutathione, maldonaldehyde, mitochondrial iron, cytosolic iron) compared to saline control group",[5],marginally higher
same,Body weight decrease,"[6]; doxorubicin 30 mg/kg cumulative dose by 7 day osmotic pump, implantation to day 7, n = 6",16.2 ± 8.9%
same,Reduction of left ventricular ejection fraction at day 6 compared to baseline at day 0,"[6]; doxorubicin 30 mg/kg cumulative dose by osmotic pump, echocardiography",15%
same,Left ventricular ejection fraction compared to time-matched vehicle controls at day 6,[6]; echocardiography,cannot detect the statistical difference
